Data as given in US11780845B2 (Relay Therapeutics, Inc., priority 2019, dated 2023).

How the values were obtained:
SNU-16 = test: Cell SNU-16 assay; type: cell-based; details: Homo sapiens, SNU-16, SNU-16 cells
FGFR2 = FGFR2 (Homo sapiens (Human), UniProt P21802); test: Biochemical FGFR2 Caliper assay
Chain of FGFR2 (P21802 22-821): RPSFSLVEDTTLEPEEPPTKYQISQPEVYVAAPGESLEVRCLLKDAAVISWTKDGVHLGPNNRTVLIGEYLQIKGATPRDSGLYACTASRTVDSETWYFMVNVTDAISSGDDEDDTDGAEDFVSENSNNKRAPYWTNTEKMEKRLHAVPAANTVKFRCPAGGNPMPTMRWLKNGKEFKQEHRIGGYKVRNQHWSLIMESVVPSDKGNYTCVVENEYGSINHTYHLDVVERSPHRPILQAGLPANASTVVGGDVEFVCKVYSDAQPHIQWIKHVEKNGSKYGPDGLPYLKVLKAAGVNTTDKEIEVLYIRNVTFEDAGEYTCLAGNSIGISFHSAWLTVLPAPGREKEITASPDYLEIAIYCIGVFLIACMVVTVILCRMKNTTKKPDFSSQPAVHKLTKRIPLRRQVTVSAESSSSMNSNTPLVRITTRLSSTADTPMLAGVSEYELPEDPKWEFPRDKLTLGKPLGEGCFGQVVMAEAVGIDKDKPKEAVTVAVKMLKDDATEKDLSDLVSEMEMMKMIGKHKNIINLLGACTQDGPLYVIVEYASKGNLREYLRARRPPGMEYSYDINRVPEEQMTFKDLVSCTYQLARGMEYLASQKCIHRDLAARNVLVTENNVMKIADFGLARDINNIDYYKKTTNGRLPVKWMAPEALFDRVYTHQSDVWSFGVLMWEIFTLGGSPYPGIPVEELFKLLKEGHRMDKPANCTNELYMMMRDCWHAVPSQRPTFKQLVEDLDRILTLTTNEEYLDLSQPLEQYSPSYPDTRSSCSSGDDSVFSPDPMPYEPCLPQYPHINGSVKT

Structure (SMILES)	IC50 (SNU-16)	IC50 (FGFR2)
C#Cc1cc(C)c(-c2c(-c3ccc(Oc4nccc(C)n4)c(Cl)c3)c3c(N)ncnc3n2C)cn1 [Example 1263]	≤ 100 nM	< 100 nM
COC(=O)/C=C/CNc1ccc(-c2c(-c3ccc(Oc4nccc(C)n4)c(F)c3)c3c(N)ncnc3n2C)cc1 [Example 1265]	100 to 250 nM	< 100 nM
Cc1ccnc(Oc2ccc(-c3c(-c4ccc(NCC#N)cc4)n(C)c4ncnc(N)c34)cc2F)n1 [Example 1266]	250 to 1000 nM	1000 to 100000 nM
C=C(C)C(=O)Nc1ccc(-c2c(-c3ccc4c(c3)NCCN4C)c3c(N)ncnc3n2C)cc1 [Example 1267]	1000 to 100000 nM	1000 to 100000 nM
C=C(C)C(=O)Nc1ccc(-c2c(C3=COCCC3)c3c(N)ncnc3n2C)cc1 [Example 1268]	1000 to 100000 nM	1000 to 100000 nM
C=C(C)C(=O)Nc1ccc(-c2c(-c3cc4cccnc4s3)c3c(N)ncnc3n2C)cc1 [Example 1270]	250 to 1000 nM	250 to 1000 nM
C=C(C)C(=O)Nc1ccc(-c2c(-c3ccc4ccncc4c3)c3c(N)ncnc3n2C)cc1 [Example 1272]	1000 to 100000 nM	1000 to 100000 nM
C=C(C)C(=O)Nc1ccc(-c2c(-c3cnn(-c4ccccc4)c3C)c3c(N)ncnc3n2C)cc1 [Example 1276]	1000 to 100000 nM	1000 to 100000 nM
C=C(C)C(=O)Nc1ccc(-c2c(-c3ccc4cccnc4c3)c3c(N)ncnc3n2C)cc1 [Example 1277]	1000 to 100000 nM	250 to 1000 nM
C=C(C)C(=O)Nc1ccc(-c2c(-c3ccc(-c4ccccn4)s3)c3c(N)ncnc3n2C)cc1 [Example 1278]	250 to 1000 nM	250 to 1000 nM
C=C(C)C(=O)Nc1ccc(-c2c(-c3ccc4oc(C)nc4c3)c3c(N)ncnc3n2C)cc1 [Example 1280]	250 to 1000 nM	250 to 1000 nM
C=C(C)C(=O)Nc1ccc(-c2c(-c3ccc4ncccc4c3)c3c(N)ncnc3n2C)cc1 [Example 1282]	1000 to 100000 nM	1000 to 100000 nM
C=C(C)C(=O)Nc1ccc(-c2c(C3=CCC(C#N)CC3)c3c(N)ncnc3n2C)cc1 (stereo not shown) [Example 1287]	1000 to 100000 nM	1000 to 100000 nM
C=C(C)C(=O)Nc1ccc(-c2c(-c3ccc4occc4c3)c3c(N)ncnc3n2C)cc1 [Example 1288]	1000 to 100000 nM	1000 to 100000 nM
C=C(C)C(=O)Nc1ccc(-c2c(-c3ccc4[nH]nc(C)c4c3)c3c(N)ncnc3n2C)cc1 [Example 1290]	1000 to 100000 nM	1000 to 100000 nM
C=C(C)C(=O)Nc1ccc(-c2c(-c3cnc(-c4ccccc4)s3)c3c(N)ncnc3n2C)cc1 [Example 1293]	250 to 1000 nM	100 to 250 nM
C=C(C)C(=O)Nc1ccc(-c2c(-c3ccc4[nH]ccc4c3)c3c(N)ncnc3n2C)cc1 [Example 1296]	250 to 1000 nM	100 to 250 nM
C=C(C)C(=O)Nc1ccc(-c2c(-c3cccc(O)c3)c3c(N)ncnc3n2C)cc1 [Example 1298]	1000 to 100000 nM	250 to 1000 nM
C=C(C)C(=O)Nc1ccc(-c2c(-c3ccc(-c4cc(=O)[nH][nH]4)cc3)c3c(N)ncnc3n2C)cc1 [Example 1300]	1000 to 100000 nM	1000 to 100000 nM
C=C(C)C(=O)Nc1ccc(-c2c(-c3ccc4nn[nH]c4c3)c3c(N)ncnc3n2C)cc1 [Example 1302]	1000 to 100000 nM	1000 to 100000 nM
C#Cc1ccc(-c2c(C3=CC[C@H](C(=O)N4CCCC45COC5)CC3)c3c(N)ncnc3n2C)c(C)n1 [Example 1304]	250 to 1000 nM	250 to 1000 nM
C#Cc1ncc(-c2c(-c3ccc(C(=O)N(C)CC(C)C)cc3)c3c(N)ncnc3n2C)c(C)c1F [Example 1305]	≤ 100 nM	< 100 nM
C=C1CCc2cc(-c3c(-c4ccc(Oc5nccc(C)n5)cc4)c4c(N)ncnc4n3C)ccc2C1=O [Example 1311]	250 to 1000 nM	< 100 nM
CC#Cc1cnc(-c2c(-c3ccc(Oc4nccc(C)n4)c(F)c3)c3c(N)ncnc3n2C)c(C)n1 [Example 1312]	100 to 250 nM	250 to 1000 nM
C=C(C)C(=O)Nc1ccc(-c2c(-c3ccc(-n4cc(CC)cn4)nc3)c3c(N)ncnc3n2C)cc1 [Example 1316]	250 to 1000 nM	250 to 1000 nM
C#Cc1nc2cc(-c3c(C4=CC[C@@H](C(=O)N5CCC[C@H]5COC)CC4)c4c(N)ncnc4n3C)ccc2[nH]1 [Example 1320]	250 to 1000 nM	< 100 nM
C#Cc1cc(C)c(-c2c(-c3ccc(Oc4nccc(C)n4)c(F)c3)c3c(N)ncnc3n2C)c(F)n1 [Example 1322]	≤ 100 nM	< 100 nM
C=C(C)C(=O)Nc1ccc(-c2c(-c3ccc4c(C(=O)NCC5CC5)n[nH]c4c3)c3c(N)ncnc3n2C)cc1 [Example 1324]	1000 to 100000 nM	1000 to 100000 nM

Next, values leading:

IC50 (SNU-16)	IC50 (FGFR2)	Structure (SMILES)
≤ 100 nM	< 100 nM	C#Cc1ncc(-c2c(-c3ccc(Oc4nccc(C)n4)c(Cl)c3)c3c(N)ncnc3n2C)c(C)c1F [Example 1264]
1000 to 100000 nM	1000 to 100000 nM	C=C(C)C(=O)Nc1ccc(-c2c(C3=CCCCO3)c3c(N)ncnc3n2C)cc1 [Example 1269]
1000 to 100000 nM	1000 to 100000 nM	C=C(C)C(=O)Nc1ccc(-c2c(-c3ccc(-c4cccnc4)s3)c3c(N)ncnc3n2C)cc1 [Example 1271]
1000 to 100000 nM	1000 to 100000 nM	C=C(C)C(=O)Nc1ccc(-c2c(-c3coc4ccccc34)c3c(N)ncnc3n2C)cc1 [Example 1273]
1000 to 100000 nM	1000 to 100000 nM	C=C(C)C(=O)Nc1ccc(-c2c(-c3ccc4nc(C)oc4c3)c3c(N)ncnc3n2C)cc1 [Example 1274]
250 to 1000 nM	250 to 1000 nM	C=C(C)C(=O)Nc1ccc(-c2c(-c3cnn(C4CCCC4)c3)c3c(N)ncnc3n2C)cc1 [Example 1275]
250 to 1000 nM	250 to 1000 nM	C=C(C)C(=O)Nc1ccc(-c2c(-c3ccc4nc(C)sc4c3)c3c(N)ncnc3n2C)cc1 [Example 1279]
250 to 1000 nM	1000 to 100000 nM	C=C(C)C(=O)Nc1ccc(-c2c(-c3cnn(-c4ccccc4)c3)c3c(N)ncnc3n2C)cc1 [Example 1281]
1000 to 100000 nM	1000 to 100000 nM	C=C(C)C(=O)Nc1ccc(-c2c(-c3ccc4c(c3)NC(=O)C4(C)C)c3c(N)ncnc3n2C)cc1 [Example 1283]
1000 to 100000 nM	1000 to 100000 nM	C=C(C)C(=O)Nc1ccc(-c2c(-c3cnc4ccccc4c3)c3c(N)ncnc3n2C)cc1 [Example 1284]
1000 to 100000 nM	250 to 1000 nM	C=C(C)C(=O)Nc1ccc(-c2c(-c3cnn(-c4ccc(F)cc4)c3)c3c(N)ncnc3n2C)cc1 [Example 1285]
250 to 1000 nM	250 to 1000 nM	C=C(C)C(=O)Nc1ccc(-c2c(-c3ccc4cnccc4c3)c3c(N)ncnc3n2C)cc1 [Example 1286]
1000 to 100000 nM	1000 to 100000 nM	C=C(C)C(=O)Nc1ccc(-c2c(-c3ccc4c(c3)COCC4)c3c(N)ncnc3n2C)cc1 [Example 1289]
1000 to 100000 nM	1000 to 100000 nM	C=C(C)C(=O)Nc1ccc(-c2c(-c3cnn(-c4cccc(C(F)(F)F)c4)c3)c3c(N)ncnc3n2C)cc1 [Example 1291]
1000 to 100000 nM	1000 to 100000 nM	C=C(C)C(=O)Nc1ccc(-c2c(-c3ccc4c(c3)CCOC4)c3c(N)ncnc3n2C)cc1 [Example 1292]
1000 to 100000 nM	250 to 1000 nM	C=C(C)C(=O)Nc1ccc(-c2c(-c3ccc4nc[nH]c4c3)c3c(N)ncnc3n2C)cc1 [Example 1294]
1000 to 100000 nM	1000 to 100000 nM	C=C(C)C(=O)Nc1ccc(-c2c(-c3ccc(N)nc3)c3c(N)ncnc3n2C)cc1 [Example 1295]

IC50 (SNU-16)	IC50 (FGFR2)	Structure (SMILES)
250 to 1000 nM	250 to 1000 nM	C=C(C)C(=O)Nc1ccc(-c2c(-c3ccc4cc[nH]c4c3)c3c(N)ncnc3n2C)cc1 [Example 1297]
1000 to 100000 nM	1000 to 100000 nM	C=C(C)C(=O)Nc1ccc(-c2c(-c3cccc(N)c3)c3c(N)ncnc3n2C)cc1 [Example 1299]
1000 to 100000 nM	1000 to 100000 nM	C=C(C)C(=O)Nc1ccc(-c2c(-c3ccc4cn[nH]c4c3)c3c(N)ncnc3n2C)cc1 [Example 1301]
1000 to 100000 nM	1000 to 100000 nM	C=C(C)C(=O)Nc1ccc(-c2c(-c3ccc(NC(=O)OCC)nc3)c3c(N)ncnc3n2C)cc1 [Example 1303]
≤ 100 nM	< 100 nM	C#Cc1ncc(-c2c(-c3ccc(C(=O)NCC(C)C)cc3)c3c(N)ncnc3n2C)c(C)c1F [Example 1306]
250 to 1000 nM	< 100 nM	CNC(=O)/C(C#N)=C/c1ccc(-c2c(-c3ccc(Oc4nccc(C)n4)c(F)c3)c3c(N)ncnc3n2C)c(C)c1 [Example 1309]
≤ 100 nM	< 100 nM	C#Cc1ncc(-c2c(-c3ccc(Oc4nccc(C)n4)cc3F)c3c(N)ncnc3n2C)c(C)c1F [Example 1310]
≤ 100 nM	< 100 nM	C#Cc1ncc(-c2c(-c3ccc(Oc4nccc(C)n4)c(F)c3)c3c(N)ncnc3n2C)c(C)c1F [Example 1313]
≤ 100 nM	100 to 250 nM	C#Cc1cnc(-c2c(-c3ccc(Oc4nccc(C)n4)c(F)c3)c3c(N)ncnc3n2C)c(CN(C)C)c1 [Example 1314]
250 to 1000 nM	100 to 250 nM	C=CC(=O)Nc1ccc(-c2c(-c3ccc(-n4cc(C)cn4)nc3)c3c(C)ncnc3n2C)cc1 [Example 1315]
≤ 100 nM	< 100 nM	C#Cc1cc(C)c(-c2c(C3=CC[C@H](C(=O)N4CCC[C@H]4C)CC3)c3c(N)ncnc3n2C)c(F)n1 [Example 1319]
≤ 100 nM	< 100 nM	C#Cc1cc(C)c(-c2cn3ncnc(N)c3c2-c2ccc(Oc3nccc(C)n3)c(F)c2)cn1 [Example 1321]
1000 to 100000 nM	1000 to 100000 nM	C=C(C)C(=O)Nc1ccc(-c2c(-c3ccc4c(C(=O)NC5CC5)n[nH]c4c3)c3c(N)ncnc3n2C)cc1 [Example 1323]
250 to 1000 nM	250 to 1000 nM	C#Cc1cc(C)c(-c2c(C3=CC[C@H](C(=O)N4CCCC45CC5)CC3)c3c(N)ncnc3n2C)cn1 [Example 1325]
≤ 100 nM	< 100 nM	C#Cc1cc(C)c(-c2c(-c3ccc(Oc4nccc(C)n4)cn3)c3c(N)ncnc3n2C)cn1 [Example 1327]
≤ 100 nM	< 100 nM	C#Cc1ncc(-c2c(-c3ccc(Oc4nccc(C)n4)cn3)c3c(N)ncnc3n2C)c(C)c1F [Example 1328]
≤ 100 nM	< 100 nM	C#Cc1ncc(-c2c(-c3ccc(Oc4nccc(C)n4)c(F)c3)c3c(N)ncnc3n2C(C)C)c(C)c1F [Example 1334]
